Data set [1] can be described thus: Molar enthalpy of transition or fusion. The following applies: Crystal; DSC.
For data set [2] the following is noted: Crystal; DTA.

± gives the expanded uncertainty stated by the source.

The text below walks through data of the NIST ThermoML archive (doi:10.1016/j.tca.2016.03.025).

For `CCC(=O)O[C@](Cc1ccccc1)(c1ccccc1)[C@H](C)CN(C)C.Cl` [Dextropropoxyphene hydrochloride], the “Molar enthalpy of transition or fusion” value in data set [1] was 31.8 ± 1.6 kJ/mol. In data set [2], the Normal melting temperature stood at 168 ± 2 °C.

For the compound `CC(=O)Nc1ccc(O)cc1` [N-acetyl-p-aminophenol], the “Molar enthalpy of transition or fusion” value in data set [1] is 27.3 ± 0.82 kJ/mol. For the same compound, the Normal melting temperature in data set [2] is 170.2 ± 2 °C.

Turning to `CN[C@@H](C)[C@@H](O)c1ccccc1.Cl` [Pseudoephedrine hydrochloride], in data set [1], the “Molar enthalpy of transition or fusion” value came to 27.3 ± 0.99 kJ/mol. In addition, in data set [2], the Normal melting temperature is 185 ± 2 °C.

With `COc1cccc([C@@]2(O)CCCC[C@@H]2CN(C)C)c1.Cl` [tramadol hydrochloride], in data set [1], the “Molar enthalpy of transition or fusion” value is 29.6 ± 1.3 kJ/mol. In addition, the Normal melting temperature in data set [2] was 184.1 ± 2 °C.
